Assay results published in ChEMBL document CHEMBL1157973, “ent-Trachylobane diterpenoids from Xylopia langsdorffiana” (J Nat Prod, 2006).

How the values were obtained:
V79 = assay: Cytotoxicity against chinese hamster V79 cells by MTT assay; format: cell-based; conditions: Cricetulus griseus
Hepatocyte = assay: Cytotoxicity against Wistar rat hepatocytes cells by MTT assay; format: cell-based
K562 = assay: Cytotoxicity against human K562 cells; format: functional, cell-based

Structure (SMILES): CC(=O)O[C@@H]1CC2[C@@](C)(C(=O)O)CCC[C@@]2(C)[C@@H]2C[C@@H]3C4C[C@@]21C[C@]43C (stereo partly drawn)
- IC50 (V79): 224 µM
- IC50 (Hepatocyte): 231 µM
- IC50 (K562): 200 µM
